Measurements: patent US9125915B2, “Antitumor agent” (Mitsubishi Tanabe Pharma Corporation, priority 2007, dated 2015)
Like-named read-outs stand apart in the source and are kept apart here.

Assays:
BRD4 = BRD4 (Homo sapiens (Human), UniProt O60885); assay: Binding inhibitory test of acetylated histone H4 and BRD4 (TR-FRET); details: CHO cell lysate with Flag-BRD4, biotin-labeled acetylated histone H4 peptide
Protocol: An expression vector containing cDNA of BRD2, 3 and 4 added with Flag-tag was transfected to CHO cell, and a cell lysate was prepared 24 hr later. Binding of acetylated histone H4 and BRD was confirmed by a Time Resolved Fluorescence Resonance Energy Transfer (TR-FRET) method. To a 384-well white plate (manufactured by Coaster) were added 50 nmol/L biotin-labeled acetylated histone H4 peptide (manufactured by Upstate) and a serially diluted test compound.

MV4-11 = assay: Growth suppressive activity test against cancer cells (WST-8), MV4-11; assay type: cell-based, human
Protocol: (§1) Using RPMI 1640 medium (manufactured by SIGMA) supplemented with 10% fetal bovine serum, human promyelocytic leukemia-derived cell line HL-60, human acute lymphoblastic leukemia-derived cell line MOLT4, human Burkitt's lymphoma-derived cell line Daudi, and human multiple myeloma-derived cell line RPMI-8226 were respectively cultured at 37° C., 5% CO2. In addition, using ISKOV medium (manufactured by SIGMA) supplemented with 10% fetal bovine serum, human chronic myeloid leukemia-derived cell line MV4-11 was cultured at 37° C., 5% CO2. Moreover, using DMEM/F-12 medium (manufactured by SIGMA) supplemented with 10% fetal bovine serum, human lung cancer cell-derived cell line EBC-1, human hepatocellular cancer-derived cell line Kim-1, human colorectal cancer-derived cell line HCT-116, human prostate cancer-derived cell line PC-3, human ovarian cancer-derived cell line A2780, and human osteosarcoma-derived cell line Saos2 were respectively cultured at 37° C., 5% CO2. These cells were plated on a 96 well plate, and cultured for 1 day. Thereto was added a compound diluted with the medium to a final concentration of 0.0003-10 μm (final DMSO concentration, 0.4%). After culture for 3 more days, WST-8 (0.16 mg/mL) was added to the culture medium and the cells were cultured for 2 hr. The absorbance at 650 nm was subtracted from the absorbance at 450 nm. The growth suppressive activity was shown by a decrease rate of the absorbance of the compound addition group to that of the compound non-addition group, and GI50 value was determined from a dose-reaction curve plotting a decrease rate of the absorbance obtained by changing the compound concentration and the compound concentrations.

HL-60 = assay: Growth suppressive activity test against cancer cells (WST-8), HL-60; assay type: cell-based; details: Homo sapiens, 72 h, HL-60, promyelocytic leukemia, 3 days culture, read-out: cell proliferation suppressive activity GI50
Protocol: as §1, with “These cells were plated on a 96 well plate, and cultured for 1 day. Thereto was added a compound diluted with the medium to a final concentration of 0.0003-10 μm (final DMSO concentration, 0.4%). After culture for 3 more days, WST-8 (0.16 mg/mL) was added to the culture medium and the cells were cultured for 2 hr.” left out

EBC-1 = assay: Growth suppressive activity test against cancer cells (WST-8), EBC-1; assay type: cell-based; details: Homo sapiens, 72 h, EBC-1, non-small cell lung cancer, 3 days culture, read-out: cell proliferation suppressive activity GI50
Protocol: as §1, with “These cells were plated on a 96 well plate, and cultured for 1 day. Thereto was added a compound diluted with the medium to a final concentration of 0.0003-10 μm (final DMSO concentration, 0.4%). After culture for 3 more days, WST-8 (0.16 mg/mL) was added to the culture medium and the cells were cultured for 2 hr.” left out

Daudi = assay: Growth suppressive activity test against cancer cells (WST-8), Daudi; assay type: cell-based; details: Homo sapiens, 72 h, Burkitt's lymphoma, 3 days culture, read-out: cell proliferation suppressive activity GI50
Protocol: as §1, with “These cells were plated on a 96 well plate, and cultured for 1 day. Thereto was added a compound diluted with the medium to a final concentration of 0.0003-10 μm (final DMSO concentration, 0.4%). After culture for 3 more days, WST-8 (0.16 mg/mL) was added to the culture medium and the cells were cultured for 2 hr.” left out

MOLT-4 = assay: Growth suppressive activity test against cancer cells (WST-8), MOLT-4; assay type: cell-based; details: Homo sapiens, 72 h, MOLT-4, acute lymphoblastic leukemia, 3 days culture, read-out: cell proliferation suppressive activity GI50
Protocol: as §1, with “These cells were plated on a 96 well plate, and cultured for 1 day. Thereto was added a compound diluted with the medium to a final concentration of 0.0003-10 μm (final DMSO concentration, 0.4%). After culture for 3 more days, WST-8 (0.16 mg/mL) was added to the culture medium and the cells were cultured for 2 hr.” left out

HCT-116 = assay: Growth suppressive activity test against cancer cells (WST-8), HCT-116; assay type: cell-based; details: Homo sapiens, 72 h, HCT-116, colorectal cancer, 3 days culture, read-out: cell proliferation suppressive activity GI50
Protocol: as §1, with “These cells were plated on a 96 well plate, and cultured for 1 day. Thereto was added a compound diluted with the medium to a final concentration of 0.0003-10 μm (final DMSO concentration, 0.4%). After culture for 3 more days, WST-8 (0.16 mg/mL) was added to the culture medium and the cells were cultured for 2 hr.” left out

Kim-1 = assay: Growth suppressive activity test against cancer cells (WST-8), Kim-1; assay type: cell-based; details: Homo sapiens, 72 h, Kim-1, hepatocellular cancer, 3 days culture, read-out: cell proliferation suppressive activity GI50
Protocol: as §1, with “These cells were plated on a 96 well plate, and cultured for 1 day. Thereto was added a compound diluted with the medium to a final concentration of 0.0003-10 μm (final DMSO concentration, 0.4%). After culture for 3 more days, WST-8 (0.16 mg/mL) was added to the culture medium and the cells were cultured for 2 hr.” left out

PC-3 = assay: Growth suppressive activity test against cancer cells (WST-8), PC-3; assay type: cell-based; details: Homo sapiens, 72 h, PC-3, prostate cancer, 3 days culture, read-out: cell proliferation suppressive activity GI50
Protocol: as §1, with “These cells were plated on a 96 well plate, and cultured for 1 day. Thereto was added a compound diluted with the medium to a final concentration of 0.0003-10 μm (final DMSO concentration, 0.4%). After culture for 3 more days, WST-8 (0.16 mg/mL) was added to the culture medium and the cells were cultured for 2 hr.” left out

Saos2 = assay: Growth suppressive activity test against cancer cells (WST-8), Saos2; assay type: cell-based; details: Homo sapiens, SAOS-2, 72 h, Saos2, osteosarcoma, 3 days culture, read-out: cell proliferation suppressive activity GI50
Protocol: as §1, with “These cells were plated on a 96 well plate, and cultured for 1 day. Thereto was added a compound diluted with the medium to a final concentration of 0.0003-10 μm (final DMSO concentration, 0.4%). After culture for 3 more days, WST-8 (0.16 mg/mL) was added to the culture medium and the cells were cultured for 2 hr.” left out

RPMI-8226 = assay: Growth suppressive activity test against cancer cells (WST-8), RPMI-8226; assay type: cell-based; details: Homo sapiens, 72 h, RPMI-8226, multiple myeloma, 3 days culture, read-out: cell proliferation suppressive activity GI50
Protocol: as §1, with “These cells were plated on a 96 well plate, and cultured for 1 day. Thereto was added a compound diluted with the medium to a final concentration of 0.0003-10 μm (final DMSO concentration, 0.4%). After culture for 3 more days, WST-8 (0.16 mg/mL) was added to the culture medium and the cells were cultured for 2 hr.” left out

A-2780 = assay: Growth suppressive activity test against cancer cells (WST-8), A-2780; assay type: cell-based; details: Homo sapiens, A2780, 72 h, A-2780, ovarian cancer, 3 days culture, read-out: cell proliferation suppressive activity GI50
Protocol: as §1, with “These cells were plated on a 96 well plate, and cultured for 1 day. Thereto was added a compound diluted with the medium to a final concentration of 0.0003-10 μm (final DMSO concentration, 0.4%). After culture for 3 more days, WST-8 (0.16 mg/mL) was added to the culture medium and the cells were cultured for 2 hr.” left out

[1] = MV4-11, 3 days culture, read-out: growth suppressive activity on MV4-11 GI50
[2] = Homo sapiens, 72 h, MV4-11, 3 days culture, read-out: growth suppressive activity on MV4-11 GI50
[3] = Homo sapiens, 72 h, MV4-11, chronic myeloid leukemia, 3 days culture, read-out: cell proliferation suppressive activity GI50

Row | SMILES | IC50 (BRD4) | GI50 (MV4-11; [1]) | also measured
1 | Cc1sc2c(c1C)C(c1ccc(Cl)cc1)=NC(CC(=O)Nc1cccnc1)c1nnc(C)n1-2 (stereo not drawn) [compound 12] | 0.108 µM | 0.03 µM | 
2 | COC(=O)C[C@@H]1N=C(c2ccc(-c3ccc(OC)cc3)cc2)c2c(sc(CO)c2C)-n2c(C)nnc21 [compound 7] | 0.113 µM | 0.055 µM | 
3 | COC(=O)C[C@@H]1N=C(c2ccc(Cl)cc2)c2c(sc(Cl)c2C)-n2c(C)nnc21 [compound 5] | 0.0542 µM | 0.073 µM | 
4 | COC(=O)C[C@@H]1N=C(c2ccc(-c3cccc(C#N)c3)cc2)c2c(sc(C)c2C)-n2c(C)nnc21 [Compound 2, methyl (S)-{4-(3′-cyanobiphenyl-4-yl)-2,3,9-trimethyl-6H-thieno[3,2-f][1,2,4]triazolo[4,3-a][1,4]diazepin-6-yl}acetate] | 0.121 µM |  | GI50 (HL-60): 0.007 µM; GI50 (EBC-1): 0.207 µM; GI50 (Daudi): 0.0674 µM; GI50 (MOLT-4): 0.106 µM; GI50 (HCT-116): 0.356 µM; GI50 (Kim-1): 0.104 µM; GI50 (PC-3): 0.199 µM; GI50 (Saos2): 0.269 µM; GI50 (RPMI-8226): 0.0694 µM; GI50 (MV4-11; [2]): 0.019 µM; GI50 (MV4-11; [3]): 0.019 µM; GI50 (A-2780): 0.13 µM
5 | CCOC(=O)C[C@@H]1N=C(c2ccc(Nc3cccnc3)cc2)c2c(sc(C)c2C)-n2c(C)nnc21 [compound 3] | 0.0549 µM | 0.02 µM | 
6 | Cc1sc2c(c1C)C(c1ccc(Cl)cc1)=NC(CC(=O)Nc1ccc(N)cc1)c1nnc(C)n1-2 (stereo not drawn) [compound 15] | 0.12 µM | 0.034 µM | 
7 | COC(=O)C[C@@H]1N=C(c2ccc(Nc3c(F)cc(F)cc3F)cc2)c2c(sc(CO)c2C)-n2c(C)nnc21 [compound 4] | 0.0772 µM | 0.095 µM | 
8 | CONC(=O)C[C@@H]1N=C(c2ccc(Cl)cc2)c2c(sc(C)c2C)-n2c(C)nnc21 [compound 17] | 0.0128 µM | 0.014 µM | 
9 | Cc1sc2c(c1C)C(c1ccc(Cl)cc1)=NC(CC(=O)NCCO)c1nnc(C)n1-2 (stereo not drawn) [compound 14] |  | 0.042 µM | 
10 | COc1ccc(NC(=O)C[C@@H]2N=C(c3ccc(Cl)cc3)c3c(sc(C)c3C)-n3c(C)nnc32)cn1 [compound 16] | 0.116 µM | 0.028 µM | 
11 | COC(=O)C[C@@H]1N=C(c2ccc(Nc3ccccc3)cc2)c2c(sc(C)c2C)-n2c(C)nnc21 [compound 8, methyl (S)-{2,3,9-trimethyl-4-(4-phenylaminophenyl)-6H-thieno[3,2-f][1,2,4]triazolo[4,3-a][1,4]diazepin-6-yl}acetate] |  |  | GI50 (MV4-11; [2]): 0.009 µM
12 | CCOC(=O)C[C@@H]1N=C(c2ccc(N(C)c3ccc(F)cc3)cc2)c2c(sc(C)c2C)-n2c(C)nnc21 [compound 11] | 0.225 µM | 0.095 µM | 
13 | COC(=O)C[C@@H]1N=C(c2ccc(NC(=O)CCc3ccccc3)cc2)c2c(sc(C)c2C)-n2c(C)nnc21 [compound 10, methyl (S)-{2,3,9-trimethyl-4-[4-(3-phenylpropionylamino)phenyl]-6H-thieno[3,2-f][1,2,4]triazolo[4,3-a][1,4]diazepin-6-yl}acetate] | 0.0471 µM |  | GI50 (MV4-11; [2]): 0.007 µM
14 | COC(=O)C[C@@H]1N=C(c2ccc(NCc3ccccc3)cc2)c2c(sc(C)c2C)-n2c(C)nnc21 [compound 9] | 0.0736 µM | 0.039 µM | 
15 | Cc1sc2c(c1C)C(c1ccc(Cl)cc1)=N[C@@H](CC(=O)Nc1ccc(O)cc1)c1nnc(C)n1-2 [Compound 1, (S)-2-[4-(4-chlorophenyl)-2,3,9-trimethyl-6H-thieno[3,2-f][1,2,4]triazolo[4,3-a][1,4]diazepin-6-yl]-N-(4-hydroxyphenyl)acetamide] |  |  | GI50 (HL-60): 0.149 µM; GI50 (EBC-1): 0.491 µM; GI50 (Daudi): 0.611 µM; GI50 (MOLT-4): 0.08 µM; GI50 (HCT-116): 0.563 µM; GI50 (Kim-1): 0.569 µM; GI50 (PC-3): 1.03 µM; GI50 (Saos2): 0.481 µM; GI50 (RPMI-8226): 0.13 µM; GI50 (MV4-11; [3]): 0.0607 µM; GI50 (A-2780): 0.619 µM
16 | CNC(=O)CC1N=C(c2ccc(Cl)cc2)c2c(sc(C)c2C)-n2c(C)nnc21 (stereo not drawn) [compound 13] | 0.0173 µM | 0.022 µM | 
17 | COc1ncccc1NC(=O)C[C@@H]1N=C(c2ccc(Cl)cc2)c2c(sc(C)c2C)-n2c(C)nnc21 [compound 18] | 0.147 µM | 0.048 µM | 
18 | COC(=O)C[C@@H]1N=C(c2ccc(Cl)cc2)c2c(sc(C)c2C)-n2c(C)nnc21 [compound 6] | 0.0182 µM | 0.026 µM | 
